Where two headings read alike, the source gives them in different places.
What was measured:
[1] = molecular target: T1, WT E. coli PNP (Escherichia coli, UniProt P0ABP8); assay: Near-UV CD titrations; format: binding; settings: for Kd: CD titrations with phosphate, three-binding-site model, 25 °C
T1 construct: made in house
T1 sequence (P0ABP8 2-239 limits assumed): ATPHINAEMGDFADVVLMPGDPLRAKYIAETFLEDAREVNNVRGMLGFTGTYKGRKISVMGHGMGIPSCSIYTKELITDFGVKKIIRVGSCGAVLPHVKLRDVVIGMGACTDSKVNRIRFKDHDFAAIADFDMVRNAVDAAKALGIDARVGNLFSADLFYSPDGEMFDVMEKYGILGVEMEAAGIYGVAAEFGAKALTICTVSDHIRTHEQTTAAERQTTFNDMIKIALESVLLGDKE
Procedure: (§1) Experiments were performed with Chirascan spectrophotometer (Applied Photophysics), in the near UV region (240–290 nm), thus in the region where aromatic amino acids absorb. Full spectra of the protein/complex were recorded, with 0.2 nm resolution and 2 s averaging per point. Enzyme concentration was in the range of 20–120 μM, the 50 mM Tris/HCl buffer pH 7.6 was used, ligands were dissolved in the same buffer. All measurements were performed at 25 °C. Upon addition of each volume of phosphate solution spectrum was recorded in the range 230–300 nm, in the amino acids absorption region, with 0.25 nm step and 2 s per point signal averaging. Spectra were smoothed with Savitzky-Golay algorithm[44] using a fourth degree polynomial and eleven points in the averaging window. The wavelengths of the greatest signal change were determined by calculating differential spectra. These wavelengths were used to plot the titration curves. Global analysis of five to seven curves was performed with DynaFit4[40].
(§2) Three models were taken into account in analysis of binding curves: model with one (first equation below), two (first two equations) and three binding sites. P+L⇔PLwithKd1PL+L⇔PLLwithKd2PLL+L⇔PLLLwithKd3
(§3) The model with one binding site is based on the assumption that all monomers are equivalent, and there is no cooperation between them. In the model with two binding sites the basic functional unit of the protein is a dimer, possible non-equivalence of binding sites or cooperativity between active sites in the dimer are taken into account (in the case of no cooperativity dissociation constants should be related statistically: Kd2 = 4Kd1), the dimers within hexamer are equivalent. The model with three binding sites is based on the crystallographic structures of binary and ternary complexes of PNP with ligands, where two of the dimers are in the “open-closed” conformation, but the third dimer is symmetrical, in the “open-open” conformation. Thus, active sites in the open conformation belonging to “open-closed” and “open-open” dimer may not be equivalent. […]
(§4) Titration series were analysed globally, always starting from the simplest, one-binding-site model. […] For all tested models the Akaike information criterion[23] was also calculated. […] Analysed models were fitted to the raw data, whereas graphs presented in this study were prepared from the normalised data and the fitted curves. […] Responses are defined as changes in a measured physical quantity related to the formation of subsequent protein–ligand complexes: intrinsic protein fluorescence intensity, fluorescence intensity of the dye, heat and ellipticity for fluorimetric, thermophoretic, calorimetric and CD titrations, respectively. […]

[2] = molecular target: T2, Y160W PNP mutant (Escherichia coli, UniProt P0ABP8, Y161W); assay: Inhibition of m^7Guo phosphorolysis; format: biochemical, E. coli; design: made in house; host or cells: E. coli DH5α-T1
T2 sequence (P0ABP8 2-239 Y161W): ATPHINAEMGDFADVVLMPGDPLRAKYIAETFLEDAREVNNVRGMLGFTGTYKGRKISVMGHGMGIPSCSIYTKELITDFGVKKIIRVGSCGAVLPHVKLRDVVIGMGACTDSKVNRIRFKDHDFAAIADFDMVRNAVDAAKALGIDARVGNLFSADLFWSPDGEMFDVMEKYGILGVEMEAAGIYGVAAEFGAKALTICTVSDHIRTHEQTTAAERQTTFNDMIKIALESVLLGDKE
Procedure: All activity measurements and kinetic studies were done in 50 mM Hepes/HCl buffer pH 7.0 at 25 °C as previously described for the WT E. coli PNP and its active-site mutants, using direct spectrophotometric assay for adenosine, guanosine and 7-methylguanosine as substrates, and a coupled assay with xanthine oxidase in the case of inosine[13],[28],[29]. Activity measurements were performed for each protein sample, before and after each experiment as a control of the state of the protein.
To determine inhibition model and inhibition constant for formycin A, rate of phosphorolysis with m^7Guo as a variable substrate, at constant, 50 mM, phosphate concentration, was registered in the absence of the inhibitor and in the presence of two different concentrations of formycin. A global fitting to the whole data set was performed, using various models (competitive, uncompetitive, noncompetitive, mixed). As expected for the substrate analogue, competitive model described the data sufficiently well:3 v0c0=Vmax1c0/c0+KM1+ci/Ki where ci is inhibitor concentration. Kinetic data were analysed using the GraphPad Prism program (Intuitive Software for Science, San Diego, CA, USA).

[3] = molecular target: T2, Y160W PNP mutant; assay: Near-UV CD titrations; format: binding, E. coli; design: made in house; host or cells: E. coli DH5α-T1; settings: for Kd: CD titrations with phosphate, three-binding-site model, 25 °C
Procedure: as §1, §2, §3, §4

[4] = 50 mM Tris/HCl pH 7.6, read-out: Kd1 ± SD
[5] = 50 mM Tris/HCl pH 7.6, read-out: Kd2 ± SD
[6] = 50 mM Tris/HCl pH 7.6, read-out: Kd3 ± SD

Row | Structure (SMILES) | Change in CD signal upon binding ([1]; formycin A binding) | Ki [2] [µM] | Change in CD signal upon binding ([3]; formycin A binding) | Kd [1, 4] [µM] | Kd [1, 5] [µM] | Kd [1, 6] [µM] | Kd [3, 4] [µM] | Kd [3, 5] [µM] | Kd [3, 6] [µM]
1 | Nc1ncnc2c([C@@H]3O[C@H](CO)[C@@H](O)[C@H]3O)[nH]nc12 [FA, Formycin A] | no changes in the CD signal | 42 ± 4 | no changes in the CD signal |  |  |  |  |  | 
2 | O=P(O)(O)O [Pi, Orthophosphate] |  |  |  | 0.58 | 107 | 1030 | 4.13 | 128 | 2330

Source: paper PMC8160210, “Single tryptophan Y160W mutant of homooligomeric E. coli purine nucleoside phosphorylase implies that dimers forming the hexamer are functionally not equivalent” (Scientific Reports, 2021)
